Assay results: DBAASP
In brackets after ≈: the same amount, converted by molar mass. Several values for one entry are separate records, joined by “and”; a condition that tells them apart may be missing. Identical values can stand only once.

Assays:
Assay in all cases: ≥ marks a high value that may be exact or a test limit, other limits are often not marked, values filed in µg/mL are converted to µM
[1] = test system: Pseudomonas aeruginosa ATCC 9027
[2] = test system: Staphylococcus aureus AB6538
[3] = test system: Pseudomonas aeruginosa ATCC 27853
[4] = test system: Escherichia coli AB94012
[5] = test system: Escherichia coli ATCC 25922
[6] = test system: Staphylococcus aureus 113
[7] = test system: Staphylococcus aureus 725
[8] = test system: Staphylococcus aureus ATCC 33591
[9] = test system: Staphylococcus aureus 936
[10] = test system: Staphylococcus aureus ATCC 25923
[11] = test system: Staphylococcus aureus MR
[12] = test system: Staphylococcus aureus 794
[13] = test system: Escherichia coli CICC 10670
[14] = test system: Listeria monocytogenes ATCC 19115
[15] = test system: Salmonella enterica subsp. enterica serovar Typhimurium ATCC 14028
[16] = test system: Staphylococcus aureus ATCC 6538
[17] = test system: Bacillus subtilis CMCC 63501
[18] = test system: Staphylococcus aureus ATCC 35556
[19] = test system: Acinetobacter baumannii ATCC 19606
[20] = test system: Escherichia coli D31 CGSC 5165
[21] = test system: Pseudomonas aeruginosa ATCC 47085
[22] = test system: Staphylococcus aureus ATCC 29213
[23] = test system: Klebsiella pneumoniae ATCC 13866
[24] = test system: Salmonella enterica serovar Typhimurium
[25] = test system: Escherichia coli ATCC 11229
[26] = test system: Staphylococcus epidermidis ATCC 12228
[27] = test system: Escherichia coli ATCC 35218
[28] = test system: Candida viswanathii NBRC 10321
[29] = test system: Aspergillus oryzae NBRC 100959
[30] = test system: Staphylococcus epidermidis NBRC 12993
[31] = test system: Escherichia coli NBRC 3972
[32] = test system: Micrococcus luteus NBRC 3333
[33] = test system: Pseudomonas putida NBRC 100650
[34] = test system: Bacillus subtilis ATCC 6633
[35] = test system: Candida albicans 08030401
[36] = test system: Candida albicans ATCC 2002
[37] = test system: Candida albicans ATCC 10231
[38] = test system: Candida albicans 08032815
[39] = test system: Bacillus subtilis
[40] = test system: Escherichia coli
[41] = test system: Escherichia coli BNCC 133264
[42] = test system: Staphylococcus aureus
[43] = test system: Candida albicans SC5314
[44] = test system: Staphylococcus aureus BNCC 186335
[45] = test system: Staphylococcus aureus ATCC 2592
[46] = test system: Listeria monocytogenes
[47] = test system: Pseudomonas aeruginosa BNCC 125486

## CC[C@H](C)[C@H](NC(=O)[C@H](CCCCN)NC(=O)[C@@H]1CCCN1C(=O)[C@H](CC(C)C)NC(=O)[C@@H](NC(=O)[C@H](CCCCN)NC(=O)CNC(=O)[C@H](CC(C)C)NC(=O)[C@@H](NC(=O)[C@H](CCCCN)NC(=O)CNC(=O)[C@H](CC(C)C)NC(=O)[C@H](CC(C)C)NC(=O)CNC(=O)[C@H](CC(C)C)NC(=O)[C@@H](N)Cc1ccccc1)C(C)C)C(C)C)C(=O)N[C@@H](Cc1ccccc1)C(=O)N[C@@H](CCCCN)C(N)=O [FLGLLGKVLGKVLPKIFK]
[1]
  MIC: 12.7 µM and 25.4 µM
[2]
  MIC: 3.17 µM (≈ 6.25 µg/mL)
[3]
  MIC: 12.7 µM (≈ 25 µg/mL)
[4]
  MIC: 6.34 µM (≈ 12.5 µg/mL)
[5]
  MIC: 12.7 µM (≈ 25 µg/mL)

## CC(C)C[C@H](NC(=O)[C@@H](NC(=O)[C@H](CCCCN)NC(=O)[C@H](CCCCN)NC(=O)[C@H](Cc1c[nH]c2ccccc12)NC(=O)[C@H](CC(C)C)NC(=O)[C@H](CCCN=C(N)N)NC(=O)[C@H](CC(C)C)NC(=O)[C@H](C)NC(=O)[C@H](CCCCN)NC(=O)CNC(=O)[C@H](CC(C)C)NC(=O)[C@H](CC(C)C)NC(=O)[C@H](CO)NC(=O)CNC(=O)[C@H](Cc1ccccc1)NC(=O)CN)C(C)C)C(N)=O [GFGSLLGKALRLWKKVL]
[6]
  MIC: 4.24 µM (≈ 8 µg/mL)
[7]
  MIC: 4.24 µM (≈ 8 µg/mL)
[8]
  MIC: 4.24 µM (≈ 8 µg/mL)
[9]
  MIC: 4.24 µM (≈ 8 µg/mL)
[10]
  MIC: 2.12 µM and 4.24 µM
[11]
  MIC: 4.24 µM (≈ 8 µg/mL)
[12]
  MIC: 4.24 µM (≈ 8 µg/mL)

## CC[C@H](C)[C@H](NC(=O)CN)C(=O)N[C@H](C(=O)N[C@@H](CC(=O)O)C(=O)N[C@@H](CC(C)C)C(=O)N[C@@H](CCCN=C(N)N)C(=O)NCC(=O)N[C@@H](CCSC)C(=O)N[C@@H](CC(C)C)C(=O)N[C@@H](CCCCN)C(=O)N[C@@H](CCCN=C(N)N)C(=O)N[C@@H](CC(C)C)C(=O)N[C@@H](CCCCN)C(=O)N[C@@H](CCCCN)C(=O)N[C@@H](CCSC)C(=O)N[C@@H](CCCCN)C(=O)O)[C@@H](C)O [GITDLRGMLKRLKKMK]
[13]
  MIC: 2.5 µM (≈ 4.72 µg/mL)
[14]
  MIC: 2.5 µM (≈ 4.72 µg/mL)
[15]
  MIC: 5 µM (≈ 9.44 µg/mL)
[16]
  MIC: 2.5 µM (≈ 4.72 µg/mL)
[17]
  MIC: 5 µM (≈ 9.44 µg/mL)

## CC[C@H](C)[C@H](NC(=O)[C@H](CCCCN)NC(=O)CNC(=O)[C@H](CC(C)C)NC(=O)[C@@H](NC(=O)[C@H](C)NC(=O)[C@H](CCCCN)NC(=O)CNC(=O)[C@H](C)NC(=O)CNC(=O)[C@H](CCCCN)NC(=O)[C@H](CCSC)NC(=O)[C@H](CCCCN)NC(=O)[C@@H](NC(=O)[C@H](Cc1c[nH]c2ccccc12)NC(=O)[C@H](CC(C)C)NC(=O)[C@H](CCC(=O)O)NC(=O)[C@H](CCCCN)NC(=O)[C@H](CC(C)C)NC(=O)[C@@H](N)CC(C)C)[C@@H](C)O)C(C)C)C(=O)N[C@@H](CCCCN)C(=O)NCC(=O)N[C@@H](CC(C)C)C(=O)N[C@@H](CC(C)C)C(=O)O [LLKELWTKMKGAGKAVLGKIKGLL]
[18]
  MIC: 15 µM (≈ 38.9 µg/mL)
[19]
  MIC: 1 µM (≈ 2.6 µg/mL)
[20]
  MIC: 0.94 µM (≈ 2.44 µg/mL)
[21]
  MIC: 15 µM (≈ 38.9 µg/mL)

## CC[C@H](C)[C@H](NC(=O)[C@H](CCCN=C(N)N)NC(=O)[C@@H](N)CCSC)C(=O)NCC(=O)N[C@@H](CC(C)C)C(=O)N[C@@H](CCCN=C(N)N)C(=O)N[C@@H](Cc1ccccc1)C(=O)N[C@H](C(=O)N[C@@H](CC(C)C)C(=O)N[C@@H](CCSC)C(=O)O)C(C)C [MRIGLRFVLM]
[22]
  MIC: 104 µM (≈ 128 µg/mL)
[3]
  MIC: 12.9 µM (≈ 16 µg/mL)
[23]
  MIC: 25.9 µM (≈ 32 µg/mL)
[8]
  MIC: ≥ 104 µM
[24]
  MIC: ≥ 104 µM
[25]
  MIC: 12.9 µM (≈ 16 µg/mL)
[26]
  MIC: 12.9 µM (≈ 16 µg/mL)
[27]
  MIC: ≥ 104 µM

## CC[C@H](C)[C@H](NC(=O)[C@H](CCCCN)NC(=O)[C@@H](N)CCCN=C(N)N)C(=O)N[C@@H](CCCCN)C(=O)N[C@@H](CCCN=C(N)N)C(=O)N[C@@H](Cc1ccc(O)cc1)C(=O)N[C@@H](CC(C)C)C(=O)N[C@@H](CCCN=C(N)N)C(=O)N[C@@H](CCCN=C(N)N)C(=O)N[C@@H](CCSC)C(=O)N[C@@H](CCCCN)C(=O)O [RKIKRYLRRMK]
[28]
  MIC: ≥ 258 µM
[29]
  MIC: ≥ 129 µM
[30]
  MIC: ≥ 64.6 µM
[31]
  MIC: ≥ 64.6 µM
[32]
  MIC: ≥ 129 µM
[33]
  MIC: ≥ 258 µM

## NCCCC[C@H](NC(=O)[C@H](CCCCN)NC(=O)[C@H](Cc1c[nH]c2ccccc12)NC(=O)[C@H](Cc1c[nH]c2ccccc12)NC(=O)[C@H](CCCCN)NC(=O)[C@H](Cc1ccccc1)NC(=O)[C@H](CCCN=C(N)N)NC(=O)[C@H](Cc1c[nH]c2ccccc12)NC(=O)[C@@H](N)CCCN=C(N)N)C(=O)O [RWRFKWWKK]
[34]
  MIC: 26.4 µM (≈ 37.5 µg/mL)
[35]
  MIC: 13 µM (≈ 18.5 µg/mL)
[36]
  MIC: 13 µM (≈ 18.5 µg/mL)
[37]
  MIC: 13 µM (≈ 18.5 µg/mL)
[10]
  MIC: 26.4 µM (≈ 37.5 µg/mL)
[5]
  MIC: 26.4 µM (≈ 37.5 µg/mL)
[38]
  MIC: 13 µM (≈ 18.5 µg/mL)

## CC(C)[C@H](N)C(=O)N[C@@H](CCCCN)C(=O)N[C@@H](CCCN=C(N)N)C(=O)N[C@@H](Cc1ccccc1)C(=O)N[C@@H](CCCCN)C(=O)N[C@@H](CCCCN)C(=O)N[C@@H](Cc1ccccc1)C(=O)N[C@@H](Cc1ccccc1)C(=O)N[C@@H](CCCN=C(N)N)C(=O)N[C@@H](CCCCN)C(=O)N[C@@H](Cc1ccccc1)C(=O)N[C@@H](CCCCN)C(=O)N[C@@H](CCCCN)C(=O)N[C@@H](Cc1ccccc1)C(=O)N[C@H](C(N)=O)C(C)C [VKRFKKFFRKFKKFV]
[39]
  MIC: 9.2 µM (≈ 18.7 µg/mL)
[40]
  MIC: 7.87 µM (≈ 16 µg/mL)
[41]
  MIC: 0.984 µM (≈ 2 µg/mL)
[42]
  MIC: 3.93 µM (≈ 8 µg/mL)
[43]
  MIC: 4.6 µM (≈ 9.35 µg/mL)
[44]
  MIC: 1.97 µM (≈ 4 µg/mL)
[45]
  MIC: 9.2 µM (≈ 18.7 µg/mL)
[5]
  MIC: 4.6 µM (≈ 9.35 µg/mL)
[46]
  MIC: 7.87 µM (≈ 16 µg/mL)
[47]
  MIC: 3.93 µM (≈ 8 µg/mL)
